From ChEMBL document CHEMBL4342527, “Discovery of Novel Fungal Lanosterol 14α-Demethylase (CYP51)/Histone Deacetylase Dual Inhibitors to Treat Azole-Resistant Candidiasis” (J Med Chem, 2020)
In brackets after ≈: the same amount, converted by molar mass. Activity calls are given as the source filed them. The rule behind the calls is not given here.

How the values were obtained:
[1] = test system: Candida albicans; test: Antifungal activity against azole-resistant Candida albicans 0304103 after 48 hrs by spectrophotometry-based serial microdilution method; type: functional; conditions: Candida albicans, 0304103, 48 h
[2] = test system: Candida albicans; test: Antifungal activity against azole-resistant Candida albicans 0304103 infected in ICR mouse assessed as reduction in fungal burden in kidney by measuring colony forming units at 20 mg/kg, ip qd for 5 days measured 24 hrs post-last dose (reference value: 6.89 log10CFU/g); type: functional
[3] = test system: Candida albicans; test: Inhibition of yeast to hypha transition in azole resistant Candida albicans 0304103 assessed as down regulation of EFG1 gene expression at 32 ug /ml after 16 hrs by SYBR Green I dye based RT-PCR analysis; type: functional, organism-based
[4] = test system: Candida albicans; test: Antifungal activity against azole-resistant Candida albicans 0304103 infected in ICR mouse assessed as inhibition of fungal infection in kidney at 20 mg/kg, po qd for 5 days and measured on day 6 by periodic acid schiff staining-based histological analysis; type: functional, organism-based
[5] = biological target: Histone deacetylase; test: Inhibition of HDAC in HUVEC using Boc-Lys(Ac)-AMC as substrate preincubated for 12 hrs followed by substrate addition and measured after 4 hrs by fluorimetry; type: ADME, cell-based, Homo sapiens
[6] = test system: Candida tropicalis; test: Antifungal activity against azole-resistant Candida tropicalis 5008 after 48 hrs by spectrophotometry-based serial microdilution method; type: functional; conditions: Candida tropicalis, 5008, 48 h
[7] = test system: Candida albicans; test: Antifungal activity against azole-resistant Candida albicans 0304103 infected in ICR mouse assessed as inhibition of fungal infection in kidney at 20 mg/kg, ip qd for 5 days and measured on day 6 by periodic acid schiff staining-based histological analysis; type: functional, organism-based
[8] = test system: Candida albicans; test: Inhibition of biofilm formation in azole resistant Candida albicans 0304103 assessed as down regulation of ALS3 gene expression at 32 ug /ml after 16 hrs by SYBR Green I dye based RT-PCR analysis; type: functional, organism-based
[9] = test system: Candida albicans; test: Inhibition of biofilm formation in azole resistant Candida albicans 0304103 after 24 hrs by XTT assay; type: functional, organism-based
[10] = test system: HUVEC; test: Cytotoxicity against HUVEC assessed as reduction in cell viability after 48 hrs by CCK-8 assay based spectrophotometric analysis; conditions: Homo sapiens
[11] = test system: A549; test: Cytotoxicity against human A549 cells assessed as reduction in cell viability after 48 hrs by CCK-8 assay based spectrophotometric analysis; conditions: A549, 48 h
[12] = test system: Candida albicans; test: Antifungal activity against azole-resistant Candida albicans 0304103 infected in ICR mouse assessed as inhibition of filamentation at 20 mg/kg, ip qd for 5 days and measured on day 6 by periodic acid schiff staining-based histological analysis; type: functional, organism-based
[13] = biological target: T1, Lanosterol 14-alpha demethylase (Candida albicans (strain SC5314 / ATCC MYA-2876) (Yeast), UniProt P10613); test: Inhibition of CYP51 in azole-resistant Candida albicans 0304103 assessed as reduction in ERG11 gene expression at 32 ug/ml after 16 hrs by SYBR Green-1 dye based RT-PCR analysis; parameters: species or system 304103
[14] = Selectivity index, ratio of IC50 for HUVEC to MIC80 for azole-resistant Candida albicans 4108; type: toxicity; conditions: human
[15] = Selectivity index, ratio of IC50 for human A549 cells to MIC80 for azole-resistant Candida albicans 4108; type: toxicity
[16] = test system: Candida albicans; test: Inhibition of yeast to hypha transition in azole resistant Candida albicans 0304103 assessed as down regulation of CPH1 gene expression at 32 ug /ml after 16 hrs by SYBR Green I dye based RT-PCR analysis; type: functional, organism-based
[17] = test system: Candida albicans; test: Antifungal activity against azole-sensitive Candida albicans SC5314 after 48 hrs by spectrophotometry-based serial microdilution method; type: functional; conditions: Candida albicans, SC5314, 48 h; read-out: MIC80
[18] = biological target: T1, Lanosterol 14-alpha demethylase; test: Inhibition of CYP51 in azole-resistant Candida albicans 0304103 assessed as ergosterol content at 0.5 ug/ml after 24 hrs by GC-MS analysis (reference value: 75.21%); parameters: scale not given: the % may be the effect or the level left
[19] = Selectivity index, ratio of IC50 for HUVEC to MIC80 for azole-resistant Candida albicans 7781; type: toxicity; conditions: human
[20] = test system: Candida albicans; test: Antifungal activity against azole-resistant Candida albicans 7781 after 48 hrs by spectrophotometry-based serial microdilution method; type: functional; conditions: Candida albicans, 7781, 48 h
[21] = test system: Cryptococcus neoformans; test: Antifungal activity against azole-sensitive Cryptococcus neoformans H99 after 72 hrs by spectrophotometry-based serial microdilution method; type: functional, var grubii H99; conditions: Cryptococcus neoformans, var grubii H99 , 72 h; read-out: MIC80
[22] = test system: Candida albicans; test: Inhibition of HDAC in azole-resistant Candida albicans 0304103 assessed as reduction in CDR1 gene expression at 32 ug/ml after 16 hrs by SYBR Green-1 dye based RT-PCR analysis; conditions: 304103
[23] = Selectivity index, ratio of IC50 for HUVEC to MIC80 for azole-resistant Candida tropicalis 5008; type: toxicity; conditions: human
[24] = test system: Candida albicans; test: Antifungal activity against azole-resistant Candida albicans 0304103 infected in ICR mouse assessed as reduction in fungal burden in kidney at 20 mg/kg, po qd for 5 days measured 24 hrs post-last dose; type: functional, organism-based
[25] = Selectivity index, ratio of IC50 for HUVEC to MIC80 for azole-resistant Candida albicans 0304103; type: toxicity; conditions: human
[26] = biological target: T1, Lanosterol 14-alpha demethylase; test: Inhibition of CYP51 in azole-resistant Candida albicans 0304103 assessed as eburicol level at 0.5 ug/ml after 24 hrs by GC-MS analysis relative to control; parameters: scale not given: the % may be the effect or the level left
[27] = Selectivity index, ratio of IC50 for human A549 cells to MIC80 for azole-resistant Candida tropicalis 5008; type: toxicity
[28] = test system: Candida albicans; test: Antifungal activity against azole-resistant Candida albicans 4108 after 48 hrs by spectrophotometry-based serial microdilution method; type: functional; conditions: Candida albicans, 4108, 48 h
[29] = biological target: Histone deacetylase 1 (Homo sapiens, UniProt Q13547); test: Inhibition of HDAC1 (unknown origin) after 30 mins by fluorescence based assay
[30] = biological target: T1, Lanosterol 14-alpha demethylase; test: Inhibition of CYP51 in azole-resistant Candida albicans 0304103 assessed as lanosterol level at 0.5 ug/ml after 24 hrs by GC-MS analysis (reference value: 4.15%); parameters: scale not given: the % may be the effect or the level left
[31] = Selectivity index, ratio of IC50 for human A549 cells to MIC80 for azole-resistant Candida albicans 7781; type: toxicity
[32] = test system: Candida albicans; test: Inhibition of HDAC in azole-resistant Candida albicans 0304103 assessed as reduction in CDR2 gene expression at 32 ug/ml after 16 hrs by SYBR Green-1 dye based RT-PCR analysis; conditions: 304103
[33] = test system: Candida albicans; test: Antifungal activity against azole-resistant Candida albicans 0304103 infected in ICR mouse assessed as inhibition of filamentation at 20 mg/kg, po qd for 5 days and measured on day 6 by periodic acid schiff staining-based histological analysis; type: functional, organism-based

T1 sequence (P10613 whole entry): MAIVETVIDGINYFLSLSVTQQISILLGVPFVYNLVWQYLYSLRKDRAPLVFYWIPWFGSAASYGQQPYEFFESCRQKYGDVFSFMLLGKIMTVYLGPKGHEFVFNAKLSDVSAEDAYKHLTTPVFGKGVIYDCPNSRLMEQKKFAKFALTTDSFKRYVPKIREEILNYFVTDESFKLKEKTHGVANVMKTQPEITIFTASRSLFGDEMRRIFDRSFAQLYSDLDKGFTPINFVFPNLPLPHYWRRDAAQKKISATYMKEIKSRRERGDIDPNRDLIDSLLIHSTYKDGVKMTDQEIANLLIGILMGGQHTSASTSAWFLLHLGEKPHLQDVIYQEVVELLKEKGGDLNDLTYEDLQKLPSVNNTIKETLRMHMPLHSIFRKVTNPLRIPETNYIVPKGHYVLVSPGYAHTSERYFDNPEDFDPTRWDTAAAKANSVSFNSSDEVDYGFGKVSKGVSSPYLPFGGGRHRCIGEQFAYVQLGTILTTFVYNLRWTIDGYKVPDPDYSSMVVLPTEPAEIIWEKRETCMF
Histone deacetylase 1, sequence (Q13547 whole entry): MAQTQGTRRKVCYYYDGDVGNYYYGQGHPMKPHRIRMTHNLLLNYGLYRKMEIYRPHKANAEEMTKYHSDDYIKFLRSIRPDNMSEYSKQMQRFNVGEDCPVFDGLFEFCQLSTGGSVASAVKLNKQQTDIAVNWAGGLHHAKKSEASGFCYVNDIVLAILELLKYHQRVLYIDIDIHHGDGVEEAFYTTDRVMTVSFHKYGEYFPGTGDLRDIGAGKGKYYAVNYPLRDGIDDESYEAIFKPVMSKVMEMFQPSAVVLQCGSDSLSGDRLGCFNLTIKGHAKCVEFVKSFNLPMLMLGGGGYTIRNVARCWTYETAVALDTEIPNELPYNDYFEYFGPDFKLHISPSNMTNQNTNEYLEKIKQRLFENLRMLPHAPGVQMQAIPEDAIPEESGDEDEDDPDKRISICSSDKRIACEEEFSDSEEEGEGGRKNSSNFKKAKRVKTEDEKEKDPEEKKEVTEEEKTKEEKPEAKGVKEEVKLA

| SMILES | MIC80 [1] [µg/mL] | Activity [2] [log10CFU/g] | inhibition [3] | inhibition [4] | IC50 [5] [µM] | MIC80 [6] [µg/mL] | inhibition [7] | inhibition [8] | inhibition [9] | IC50 [10] [µM] | IC50 [11] [µM] | inhibition [12] | inhibition (INH) [13] | selectivity ratio [14] | selectivity ratio [15] | inhibition [16] | MIC80 [17] [µg/mL] | Activity [18] [%] | selectivity ratio [19] | MIC80 [20] [µg/mL] | other results |
| --- | --- | --- | --- | --- | --- | --- | --- | --- | --- | --- | --- | --- | --- | --- | --- | --- | --- | --- | --- | --- | --- |
| CN(Cc1ccc(OCCCOc2ccc(CC(=O)NO)cc2)cc1)CC(O)(Cn1cncn1)c1ccc(F)cc1F (racemic) | 0.25 (≈ 0.43 µM) | 6.16 | Active | Active | 2.7 | 0.25 (≈ 0.43 µM) | Active | Active | Dose-dependent effect | 6.7 to 25.4 | 6.7 to 25.4 | Active | Active | 2 to 16 | 2 to 16 | Active | 0.125 (≈ 0.215 µM) | 18.44 | 2 to 16 | 0.5 (≈ 0.86 µM) | MIC80 [21]: 0.5 µg/mL (≈ 0.86 µM); inhibition [22]: Active; selectivity ratio [23]: 2 to 16; Activity [24]: Active; selectivity ratio [25]: 2 to 16; Activity [26]: 65.4%; selectivity ratio [27]: 2 to 16; MIC80 [28]: 0.5 µg/mL (≈ 0.86 µM); IC50 [29]: 0.69 µM; Activity [30]: 8.57%; selectivity ratio [31]: 2 to 16; inhibition [32]: Active; inhibition [33]: Active |
| CN(Cc1ccc(-n2cnn(CCCCc3ccc(C(=O)NO)cc3)c2=O)cc1)CC(O)(Cn1cncn1)c1ccc(F)cc1F (racemic) | 2 (≈ 3.16 µM) | 4.49 | Active | Active | 6.8 | 8 (≈ 12.6 µM) | Active | Active | Dose-dependent effect | 6.7 to 25.4 | 6.7 to 25.4 | Active | Active | 2 to 16 | 2 to 16 | Active | 4 (≈ 6.32 µM) | 61.48 | 2 to 16 | 2 (≈ 3.16 µM) | MIC80 [21]: 2 µg/mL (≈ 3.16 µM); inhibition [22]: Active; selectivity ratio [23]: 2 to 16; Activity [24]: Active; selectivity ratio [25]: 2 to 16; Activity [26]: 13.22%; selectivity ratio [27]: 2 to 16; MIC80 [28]: 8 µg/mL (≈ 12.6 µM); IC50 [29]: 0.28 µM; Activity [30]: 25.29%; selectivity ratio [31]: 2 to 16; inhibition [32]: Active; inhibition [33]: Active |
